The values below come from patent publication US10233184B2, “7-substituted sulfonimidoylpurinone compounds and derivatives for the treatment and prophylaxis of virus infection” (Hoffmann-La Roche Inc., priority 2016, dated 2019).

Each structure is given as a SMILES string. In brackets after ≈: the same amount, converted by molar mass. Like-named read-outs stand apart in the source and are kept apart here.

The nature of one data set: LYSA solubility study. As to conditions: for solubility thermodynamic: phosphate buffer, pH 6.5, aqueous buffer, thermodynamic from solid; for LYSA of Prodrugs: aqueous solubility, 0.05M phosphate buffer pH 6.5. It is filed as physicochemical. As for the experimental part:
LYSA study is used to determine the aqueous solubility of tested compounds. Samples were prepared in duplicate from 10 mM DMSO stock solution. After evaporation of DMSO with a centrifugal vacuum evaporator, the compounds were dissolved in 0.05M phosphate buffer (pH 6.5), stirred for one hour and shaken for two hours. After one night, the solutions were filtered using a microtiter filter plate. Then the filtrate and its 1/10 dilution were analyzed by HPLC-UV. […] The results were in μg/mL. In case the percentage of sample measured in solution after evaporation divided by the calculated maximum of sample amount was bigger than 80%, the solubility was reported as bigger than this value.

The target of the next data set is T1, human TLR7 (Homo sapiens, UniProt Q9NYK1).
T1 sequence (Q9NYK1 27-1049): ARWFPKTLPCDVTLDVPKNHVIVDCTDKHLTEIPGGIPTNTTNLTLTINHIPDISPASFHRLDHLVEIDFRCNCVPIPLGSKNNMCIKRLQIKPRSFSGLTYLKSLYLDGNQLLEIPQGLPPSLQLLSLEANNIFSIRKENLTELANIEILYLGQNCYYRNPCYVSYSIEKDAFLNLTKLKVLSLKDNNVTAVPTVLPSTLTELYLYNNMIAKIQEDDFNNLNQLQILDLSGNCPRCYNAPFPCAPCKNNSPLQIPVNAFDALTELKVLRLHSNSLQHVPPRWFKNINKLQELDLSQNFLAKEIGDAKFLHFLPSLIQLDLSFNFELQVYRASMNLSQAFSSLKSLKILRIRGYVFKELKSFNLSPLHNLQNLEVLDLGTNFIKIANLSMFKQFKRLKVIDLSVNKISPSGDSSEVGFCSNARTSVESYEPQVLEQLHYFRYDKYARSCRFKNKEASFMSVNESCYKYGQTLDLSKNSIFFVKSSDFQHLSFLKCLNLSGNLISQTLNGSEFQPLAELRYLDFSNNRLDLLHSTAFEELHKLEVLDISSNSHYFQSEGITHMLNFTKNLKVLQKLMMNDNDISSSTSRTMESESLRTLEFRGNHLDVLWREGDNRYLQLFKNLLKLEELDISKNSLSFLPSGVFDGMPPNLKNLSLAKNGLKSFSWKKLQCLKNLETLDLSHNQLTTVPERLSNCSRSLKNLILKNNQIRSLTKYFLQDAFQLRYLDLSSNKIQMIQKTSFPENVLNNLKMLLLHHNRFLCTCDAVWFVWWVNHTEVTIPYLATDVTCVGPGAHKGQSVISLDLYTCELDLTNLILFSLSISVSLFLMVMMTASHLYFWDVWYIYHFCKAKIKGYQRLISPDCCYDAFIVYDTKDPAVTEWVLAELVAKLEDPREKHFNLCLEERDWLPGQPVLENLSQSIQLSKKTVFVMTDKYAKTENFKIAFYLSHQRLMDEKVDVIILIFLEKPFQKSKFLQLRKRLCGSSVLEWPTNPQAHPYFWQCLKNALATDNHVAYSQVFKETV
The data set can be described thus: HEK293-Blue-hTLR-7 cells assay (SEAP reporter). It is filed as cell-based. The settings on record: for EC50: HEK293-Blue-hTLR-7 cells, SEAP reporter, 20 hrs; for Ratio (EC50(prodrug)/EC50(active form)): EC50 of prodrug over EC50 of corresponding active form. The source says: HEK293-Blue-hTLR-7 Cells Assay:
A stable HEK293-Blue-hTLR-7 cell line was purchased from InvivoGen (Cat.#: hkb-htlr7, San Diego, Calif., USA). These cells were designed for studying the stimulation of human TLR7 by monitoring the activation of NF-κB. A SEAP (secreted embryonic alkaline phosphatase) reporter gene was placed under the control of the IFN-β minimal promoter fused to five NF-κB and AP-1-binding sites. The SEAP was induced by activating NF-κB and AP-1 via stimulating HEK-Blue hTLR7 cells with TLR7 ligands. Therefore the reporter expression was regulated by the NF-κB promoter upon stimulation of human TLR7 for 20 hrs. The cell culture supernatant SEAP reporter activity was determined using QUANTI-Blue™ kit (Cat.#: rep-qbl, Invivogen, San Diego, Calif., USA) at a wavelength of 640 nm, a detection medium that turns purple or blue in the presence of alkaline phosphatase.
HEK293-Blue-hTLR7 cells were incubated at a density of 250,000˜450,000 cells/mL in a volume of 180 μL in a 96-well plate in Dulbecco's Modified Eagle's medium (DMEM) containing 4.5 g/L glucose, 50 U/mL penicillin, […], […], 2 mM L-glutamine, 10% (V/V) heat-inactivated fetal bovine serum for 24 hrs. Then the HEK293-Blue-hTLR-7 cells were incubated with addition of 20 μL test compound in a serial dilution in the presence of final DMSO at 1% and perform incubation under 37° C. in a CO2 incubator for 20 hrs. Then 20 μL of the supernatant from each well was incubated with 180 μL Quanti-blue substrate solution at 37° C. for 2 hrs and the absorbance was read at 620˜655 nm using a spectrophotometer. The signalling pathway that TLR7 activation leads to downstream NF-κB activation has been widely accepted, and therefore similar reporter assay was also widely used for evaluating TLR7 agonist (Tsuneyasu Kaisho and Takashi Tanaka, Trends in Immunology, Volume 29, Issue 7, July 2008, […]; Hiroaki Hemmi et al, Nature Immunology 3, 196-200 (2002)).
The Compounds and Examples of the present invention were tested in HEK293-hTLR-7 assay for their TLR7 agonism activity as described herein and results are listed in Table 1. […] The calculated ratio of EC50(prodrug)/EC50(active form) were within the range from 32 to about 7600.

The nature of data set [1]: Single dose PK study in male Wister-Han rats. Type of data set: in vivo. As to conditions: male, Wister-Han, rat, plasma, po, 5 mg/kg, 5 mg/kg oral dosing of active form. As for the experimental part: The single dose PK in Male Wister-Han Rats was performed to assess pharmacokinetic properties of tested compounds. Two groups of animals were dosed via Gavage (POE) of the respective compound. […] Blood samples were placed into tubes containing EDTA-K2 anticoagulant and centrifuged at 5000 rpm for 6 min at 4° C. to separate plasma from the samples. After centrifugation, the resulting plasma was transferred to clean tubes for bioanalysis of both prodrug and active form on LC/MS/MS. In the groups that prodrug were dosed, the concentration of prodrugs in the plasma samples was under the detection limit. The “tested compound” in Table 8 was used as the internal standard for testing the metabolite (active form) of “dose compound” in vivo. The pharmacokinetic parameters were calculated using non-compartmental module of WinNonlin® Professional 6.2. The peak concentration (Cmax) was recorded directly from experimental observations. The area under the plasma concentration-time curve (AUC0-t) was calculated using the linear trapezoidal rule up to the last detectable concentration. Cmax and AUC0-last are two critical PK parameters related to the in vivo efficacy of the tested compound. Compounds with higher Cmax and AUC0-last will lead to the better in vivo efficacy.

The mark [2] stands for this setting: 0.05M phosphate buffer pH 6.5, read-out: LYSA of Prodrugs.
Setting [3] is: prodrug, read-out: HEK293-hTLR-7 EC50 (Prodrug).

A word on the EC50: it is the midpoint of the concentration-response curve. On to `CC[S@](=N)(=O)c1nc(N)c2[nH]c(=O)n(Cc3ccc(C)cc3)c2n1` (single isomer, unassigned) [Compound 43e-B], for which the solubility thermodynamic in the data set “LYSA solubility study” (0.05M phosphate buffer pH 6.5, read-out: LYSA of Active Forms) was 13 µg/mL (≈ 37.5 µM). Further, at human TLR7 (active form, read-out: HEK293-hTLR-7 EC50 (Active form)), the EC50 was found to be 0.035 µM.
As to `CCCN(C)C(=O)n1c(=O)n(Cc2ccccc2)c2nc(S(=N)(=O)CCC)nc(N)c21` (single isomer, unassigned) [Example 1-A], the solubility thermodynamic in “LYSA solubility study” (setting [2]) turned out to be 315 µg/mL (≈ 707 µM). Also, the “Ratio (EC50(prodrug)/EC50(active form))” value at human TLR7 came to 634.3. Moreover, the EC50 at human TLR7 (setting [3]) was determined as 42.5 µM.
The like results for `CCCS(=N)(=O)c1nc(N)c2c(n1)n(Cc1ccccc1)c(=O)n2C(=O)N(C)CCOC` (single isomer, unassigned) [Example 2-A] were, in that order, over 600 µg/mL, 43.0 and 3.7 µM.
For the compound `CCCS(=N)(=O)c1nc(N)c2c(n1)n(Cc1ccccc1)c(=O)n2C(=O)N(C)CCOC` (single isomer, unassigned) [Example 2-B], the “LYSA of Prodrugs” value in “LYSA solubility study” was over 590 µg/mL. Also, the “Ratio (EC50(prodrug)/EC50(active form))” value on human TLR7 came out at 65.7. The EC50 on human TLR7 (setting [3]) was found to be 4.4 µM.
On to `CCCN(C)C(=O)n1c(=O)n(Cc2ccc(C)cc2)c2nc([S@@](=N)(=O)CC)nc(N)c21` (single isomer, unassigned) [Example 43-B], for which the solubility thermodynamic in the data set “LYSA solubility study” (setting [2]) came to 170 µg/mL (≈ 382 µM). Further, on human TLR7, the “Ratio (EC50(prodrug)/EC50(active form))” value worked out at 2240. Also, the EC50 on human TLR7 (setting [3]) turned out to be 78.4 µM.
Take `CCCN(C)C(=O)n1c(=O)n(Cc2ccc(F)cc2)c2nc(S(=N)(=O)CC)nc(N)c21` (single isomer, unassigned) [Example 45-A]: in “LYSA solubility study” (setting [2]), the solubility thermodynamic is over 560 µg/mL. Further, the EC50 at human TLR7 (setting [3]) came out at 153 µM.
For `CCCN(C)C(=O)n1c(=O)n(Cc2ccc(F)cc2)c2nc([S@@](=N)(=O)CC)nc(N)c21` (single isomer, unassigned) [Example 45-B], the solubility thermodynamic in “LYSA solubility study” (setting [2]) is 420 µg/mL (≈ 934 µM). At human TLR7 (setting [3]), the EC50 is over 1000 µM.
Take `CCN(C)C(=O)n1c(=O)n(Cc2ccc(F)cc2)c2nc(S(=N)(=O)CC)nc(N)c21` (single isomer, unassigned) [Example 46-A]: the “LYSA of Prodrugs” value in “LYSA solubility study” was determined as 205 µg/mL. The EC50 on human TLR7 (setting [3]) worked out at 45.5 µM.
For `CCN(C)C(=O)n1c(=O)n(Cc2ccc(F)cc2)c2nc(S(=N)(=O)CC)nc(N)c21` (single isomer, unassigned) [Example 46-B] the same measures were over 580 µg/mL and 45.7 µM.
Regarding `CCCN(C)C(=O)n1c(=O)n(Cc2ccc(Br)cc2)c2nc([S@@](=N)(=O)CC)nc(N)c21` (single isomer, unassigned) [Example 47-B], the solubility thermodynamic in “LYSA solubility study” (setting [2]) came to 128 µg/mL (≈ 251 µM). Moreover, the EC50 at human TLR7 (setting [3]) came out at 13.1 µM.
`CCN(C)C(=O)n1c(=O)n(Cc2ccc(Br)cc2)c2nc(S(=N)(=O)CC)nc(N)c21` (single isomer, unassigned) [Example 48-A]: the solubility thermodynamic in the data set “LYSA solubility study” (setting [2]) is 305 µg/mL (≈ 614 µM). Further, the EC50 on human TLR7 (setting [3]) came out at 18.3 µM.
`CCCN(C)C(=O)n1c(=O)n(Cc2ccc(C)cc2)c2nc([S@@](=N)(=O)CCC)nc(N)c21` (stereo in doubt) [Example 36-B, 6-amino-N-methyl-8-oxo-N-propyl-2[S(R)-propylsulfonimidoyl]-9-(p-tolylmethyl)purine-7-carboxamide]: in “LYSA solubility study”, the “LYSA of Prodrugs” value was 209 µg/mL.
On to `CCCS(=N)(=O)c1nc(N)c2c(n1)n(Cc1ccccc1)c(=O)n2C(=O)N(C)[C@@H](C)C(=O)OCC` (stereo partly drawn) [Example 17, Ethyl(2S)-2-[[6-amino-9-benzyl-8-oxo-2-(propylsulfonimidoyl)purine-7-carbonyl]-methyl-amino]propanoate], for which the solubility thermodynamic in the data set “LYSA solubility study” (setting [2]) came out at 190 µg/mL (≈ 377 µM).
On the same count and under the same terms, for `CCCN(C)C(=O)n1c(=O)n(Cc2ccc(F)cc2)c2nc(S(=N)(=O)CC)nc(N)c21` (stereo not shown) [Example 45, 6-amino-2-(ethylsulfonimidoyl)-9-[(4-fluorophenyl)methyl]-N-methyl-8-oxo-N-propyl-purine-7-carboxamide] the value was 172 µg/mL (≈ 383 µM).
For orientation: AUC(0-t) means the area under the concentration-time curve up to a stated or last time point. Read a low AUC(0-t) as low exposure. In general, Cmax refers to the highest concentration seen after dosing. In data set [1], `CCS(=O)(=O)c1nc(N)c2[nH]c(=O)n(Cc3ccc(Cl)cc3)c2n1` [Example S-2, reference compound] had an AUC(0-t) of 0.748 µM·h, a Cmax of 52.7 nM, a concentration at 0.25 h of 9.49 nM and a concentration at 0.5 h of 16.7 nM. In data set [1], this compound registered a concentration at 1 h of 19.3 nM, a concentration at 2 h of 24.9 nM, a concentration at 4 h of 47.5 nM and a concentration at 8 h of 52.7 nM. The concentration at 24 h in data set [1] (24 h) stood at 4.9 nM.
Turning to `CCS(=O)(=O)c1nc(N)c2[nH]c(=O)n(Cc3ccc(C)cc3)c2n1` [Example S-3, reference compound], in data set [1], the AUC(0-t) is 0.095 µM·h, the Cmax was 11.5 nM, the concentration at 0.25 h was 8.89 nM and the concentration at 0.5 h amounted to 9.99 nM. In data set [1], this compound yielded a concentration at 1 h of 10.2 nM, a concentration at 2 h of 8.4 nM, a concentration at 4 h of 11.5 nM and a concentration at 8 h of 8.17 nM.
